How the values were obtained:
Format in all cases: in vivo
C. elegans [1] = test: Thermal avoidance (TAV) 3 step dose response testing; conditions: for effects indicating increased sensory sensitivity: 0%, 6%, 12% laser intensity
Text: The present invention includes a series of compounds that may be useful for increasing sensory neuron function in certain human neuropathological conditions. C. elegans contains a number of sensory neurons which are responsible for detecting a variety of external stimuli. One such stimulus (heat) can be detected and quantified in C. elegans by the use of thermal avoidance (TAV) technology available through NemaRx. The goal of this experiment was to provide an initial characterization of the compounds via TAV. Specifically, it was asked whether any of these compounds can lead to an increase in the thermal stimulus-induced behavioral response measured by TAV. N2 strain C. elegans animals were used for this project, which have ‘normal’, i.e. wildtype, sensory neuron function. Four compounds were received by NemaRx for TAV testing. These compounds were:
(§1) One 24 well microtiter plate was set up and incubated overnight on the shaker at 20 C. Each well on the plate was set up with 600 L3/L4-stage N2 animals in NGM with a 1:20 dilution of concentrated HB101 E. coli (food source) in a volume of 300 μl. Before the animal/HB101 solution was added, test compounds were pipetted into wells. For water controls and compound stocks/dilutions in water (DHLA, NAC) 6 μl was added to each well (1:50 dilutions). For DMSO controls and compound stocks/dilutions in DMSO (LA) 3 μl was added to each well (1:100 dilutions). No OD620 measurements were taken but the animals were visually scored after 19 h incubation.
Dose Responses—setup: All of the wells from the 24 well plate were used for dose response testing and the entire well contents (600 animals) were used for each test. Prior to being placed on the agar plate for TAV testing each sample was processed as follows: • sample were transferred to glass tube containing 7 ml PBS • animals were allowed to settle for 5 minutes before most of the supernatant was removed (approx. 0.5 ml remaining in tube) • 7 ml PBS was then added, mixed and animals were allowed to settle for 5 minutes most of the supernatant was then removed • animals were removed and transferred to TAV testing plate (NRx Application pattern A) • plate was allowed to dry for 10 minutes (plate cover removed) and TAV testing was initiated. Per plate settings for the dose response experiments were as follows:
Dose Responses—general notes on analysis: A response of the animals to a thermal stimulus (laser) which is applied to the head region can be detected both by a change in the direction of movement, as well as by a change in speed occurring within the test interval where the stimulus is applied. • direction of movement. […] Animals that show a strong change in the direction of movement, i.e. reversals, are classified as LR5 responders. […] LR5 responders show a thermal intensity-dependent increase in the speed of movement (starting off with less than <prelaser speed at low intensities up to > pre-laser speed at high intensities)
The dose response experiments for the current project were carried out with 0% (background control), 6% and 12% settings of laser intensity. In practice, 6% is on the edge of laser intensity required to detect an increase in the number of LR5 responders. As such, 6% should be a useful intensity-setting to detect compound-induced increased sensitivity in the animals. The 12% setting was chosen because this intensity typically gives a robust increase in the number of LR5 responders.
Total Responder speeds, ‘LR1 Responder speeds’ and ‘LR5 Responder speeds’ are shown as normalized speeds to allow better comparison between samples. For normalization purposes the average pre-laser speed is set at 1.0 and responder speeds are calculated relative to this value.
One 24 well microtiter plate was set up and incubated overnight on the shaker at 20° C. Each well on the plate was set up with 600 L3/L4-stage N2 animals in NGM with a 1:20 dilution of concentrated HB101 E. coli (food source) in a volume of 300 μl. […]

C. elegans [2] = test: Visual scoring of C. elegans after overnight incubation with compound in 24 well plate; conditions: for visual scoring of well clearance: L3/L4-stage N2 animals
Description: as §1
as §1, with “at 20°” for “at 20”, “For” for “For water controls and compound stocks/dilutions in water (DHLA, NAC) 6 μl was added to each well (1:50 dilutions). For”, “DMSO (LC)” for “DMSO (LA)”, “h incubation).” for “h incubation.”
as §1, with “at 20°” for “at 20”, “For” for “For water controls and compound stocks/dilutions in water (DHLA, NAC) 6 μl was added to each well (1:50 dilutions). For”, “DMSO (LC)” for “DMSO (LA)”, “after 22” for “after 19”, “h incubation).” for “h incubation.”

C. elegans [3] = test: Thermal avoidance (TAV) single intensity testing (6% laser intensity)
Description: (§2) One 24 well microtiter plate was set up and incubated overnight on the shaker at 20° C. Each well on the plate was set up with 600 L3/L4-stage N2 animals in NGM with a 1:20 dilution of concentrated HB101 E. coli (food source) in a volume of 300 μl. Before the animal/HB101 solution was added, test compounds were pipetted into wells. 3 μl each for the DMSO controls and LA dilutions were added to each well (1:100 dilutions). Controls and LA dilutions were done in triplicate (total of 9 wells).
6% Response tests—setup: All 9 wells from the 24 well plate were used for 6% testing and the entire well contents (600 animals) were used for each test. Prior to being placed on the agar plate for TAV testing each sample was processed as described for ‘Dose Responses’.
Dose Responses—general notes on analysis: Analysis similar as described in ‘Dose Responses’. In addition, ‘Response ratios’ as well as ‘A Speed responses’ both give measures of how much individual animals changed speed in response to the stimulus (additional information available upon request).
as §2, with “wells. 6” for “wells. 3”, “the water” for “the DMSO”, “and compound” for “and LA”, “well (1:50” for “well (1:100”, “of 15” for “of 9”
6% Response tests—setup: All 15 wells from the 24 well plate were used for 6% testing) and the entire well contents (600 animals) were used for each test. Prior to being placed on the agar plate for TAV testing each sample was processed as described for ‘Dose Responses’.
as §2, with “LC” for “LA”

[4] = even at highest concentration 2 mM (LC)

Row | Molecule | effects indicating increased sensory sensitivity (C. elegans [1]; even at highest non-toxic concentration of 2 mM) | speed of LR1 responders (C. elegans [1]; LA3 dilution) | percentage of LR5 responders (C. elegans [1]; dilutions LA4, LA5 and LA6, similar to the last DMSO control) | toxicity evident from 'Frames viewed' and 'Average Speeds' (C. elegans [1]; two highest LA concentrations (LA1, LA2)) | visual scoring of well clearance (C. elegans [2]; LA1, 10 mM final concentration in well, 19 h incubation) | visual scoring of well clearance (C. elegans [2]; LA2, 5 mM final concentration in well, 19 h incubation) | effects indicating increased sensory sensitivity (C. elegans [3]; 2 mM or 1 mM) | effects indicating increased sensory sensitivity (C. elegans [1]; [4]) | visual scoring (toxicity) (C. elegans [2]; LC, 22 h incubation) | visual scoring (toxicity) (C. elegans [2]; all LC dilutions LC1-LC6 (up to 2 mM), 19 h incubation) | effects indicating increased sensory sensitivity (C. elegans [3]; [4])
1 | O=C(O)CCCCC1CCSS1 (centres unmarked) [LA, Lipoic acid] | No obvious effects detected | relatively low | relatively high | toxicity is observed | most bacteria remaining | some bacteria remaining | No effects detected |  |  |  | 
2 | Acetyl-L-Carnitine-Lipoic acid conjugate [LC Conjugate] |  |  |  |  |  |  |  | No obvious effects detected | no toxicity observed | no toxicity observed | No obvious effects detected
